Source: DBAASP
≈ marks a conversion by molar mass, not a printed value.

How the values were obtained:
Experiment in all cases: ≥ marks a high value that may be exact or a test limit, other limits are often not marked, values filed in µg/mL are converted to µM
[1] = system: Pseudomonas aeruginosa PAO1
Escherichia coli BL21 = system: Escherichia coli BL21
[2] = system: Streptococcus pyogenes M1T1 5448
[3] = system: Escherichia coli NCTC 10418
[4] = system: Staphylococcus aureus NCTC 12981
[5] = system: Staphylococcus carnosus KHS
[6] = system: Rhodococcus rhodochrous X15
[7] = system: Bacillus licheniformis X39
[8] = system: Psychrobacter faecalis X29
[9] = system: Staphylococcus aureus ATCC 2592
[10] = system: Pseudomonas aeruginosa CMCCB 10104
[11] = system: Candida albicans ATCC 90028
[12] = system: Staphylococcus aureus ATCC 25923
[13] = system: Candida albicans ATCC 2002
[14] = system: Escherichia coli CIB 84492
[15] = system: Escherichia coli ATCC 25922
[16] = system: Staphylococcus aureus NCTC 8325
[17] = system: Staphylococcus aureus CIB 85462
[18] = system: Bacillus subtilis ATCC 6633
[19] = system: Micrococcus luteus ATCC 9341
[20] = system: Shigella flexneri ATCC 203
[21] = system: Pseudomonas aeruginosa ATCC 9027
[22] = system: Escherichia coli ATCC 2592
[23] = system: Corynebacterium diphtheriae ATCC 8024
[24] = system: Staphylococcus aureus ATCC 6538
Staphylococcus aureus = system: Staphylococcus aureus
[25] = system: Candida albicans ATCC 36232
[26] = system: Staphylococcus epidermidis ATCC 12228
Listeria innocua = system: Listeria innocua
Micrococcus luteus A270 = system: Micrococcus luteus A270
Escherichia coli = system: Escherichia coli
[27] = system: Salmonella enterica subsp. enterica serovar Enteritidis
[28] = system: Pseudomonas aeruginosa H1001

Q: How did the MIC [1] turn out when `CC[C@H](C)[C@H](NC(=O)[C@H](CCC(=O)O)NC(=O)[C@H](CCCN=C(N)N)NC(=O)[C@H](CCCN=C(N)N)NC(=O)[C@H](CC(C)C)NC(=O)[C@H](Cc1ccc(O)cc1)NC(=O)[C@H](CCCCN)NC(=O)[C@H](C)NC(=O)[C@@H](NC(=O)[C@@H](NC(=O)[C@H](CCC(N)=O)NC(=O)[C@H](CCCN=C(N)N)NC(=O)[C@H](Cc1c[nH]c2ccccc12)NC(=O)[C@H](C)N)[C@@H](C)O)[C@@H](C)CC)C(=O)N[C@@H](CCCN=C(N)N)C(=O)N[C@@H](CCCCN)C(=O)N[C@@H](CCCN=C(N)N)C(=O)NCC(=O)N[C@@H](CCCN=C(N)N)C(=O)N[C@@H](CCCCN)C(=O)N[C@@H](C)C(=O)N[C@H](C(=O)N[C@H](C(=O)N[C@@H](C)C(=O)N[C@@H](Cc1c[nH]c2ccccc12)C(=O)O)[C@@H](C)CC)C(C)C` [AWRQTIAKYLRREIRKRGRKAVIAW] was run?
A: 4 µM (≈ 12.5 µg/mL)

Q: What about the MIC (Escherichia coli BL21) of the same compound?
A: 1 µM (≈ 3.13 µg/mL)

Q: And the MIC [2]?
A: 4 µM (≈ 12.5 µg/mL)

Q: Which results are given for `NC(=O)[C@H](Cc1ccccc1)NC(=O)[C@H](CCCN=C(N)N)NC(=O)[C@H](Cc1ccccc1)NC(=O)[C@H](CCCN=C(N)N)NC(=O)[C@@H](N)Cc1ccccc1` [FRFRF]?
A: MIC [3]: ≥ 166 µM; MIC [4]: ≥ 166 µM

Q: With `CC[C@H](C)[C@H](NC(=O)CN)C(=O)N[C@@H](Cc1ccccc1)C(=O)N[C@@H](CO)C(=O)N[C@@H](CC(C)C)C(=O)N[C@@H](Cc1ccccc1)C(=O)N[C@@H](CCCCN)C(=O)N[C@@H](C)C(=O)NCC(=O)N[C@@H](C)C(=O)N[C@@H](CCCCN)C(=O)N[C@@H](Cc1ccccc1)C(=O)N[C@@H](Cc1ccccc1)C(=O)NCC(=O)N[C@@H](CCCCN)C(=O)N[C@@H](Cc1cnc[nH]1)C(=O)N[C@@H](CC(C)C)C(=O)N[C@@H](CC(C)C)C(=O)N[C@@H](CCCCN)C(=O)N[C@@H](CCC(N)=O)C(=O)N[C@@H](C)C(=O)NCC(=O)N[C@@H](CCCCN)C(=O)N[C@@H](C)C(=O)NCC(=O)N[C@@H](C)C(=O)N[C@@H](CCC(=O)O)C(=O)N[C@@H](Cc1cnc[nH]1)C(=O)N[C@@H](CC(C)C)C(=O)N[C@@H](C)C(=O)N[C@H]1CSSC[C@@H](C(=O)O)NC(=O)[C@H](CCC(N)=O)NC(=O)[C@H](CC(N)=O)NC(=O)[C@H]([C@@H](C)O)NC(=O)[C@H](C)NC(=O)[C@H](CCCCN)NC1=O` [GIFSLFKAGAKFFGKHLLKQAGKAGAEHLACKATNQC] as the compound, how does the MIC [5] read?
A: 3.2 µM (≈ 12.4 µg/mL)

Q: What about the MIC [6] of the same compound?
A: 0.8 µM (≈ 3.11 µg/mL)

Q: What about the MIC [7] of the same compound?
A: 3.2 µM (≈ 12.4 µg/mL)

Q: What about the MIC [8] of the same compound?
A: 1.6 µM (≈ 6.22 µg/mL)

Q: And the MIC [9]?
A: 1.6 µM (≈ 6.22 µg/mL)

Q: How did the MIC [10] turn out when `CC[C@H](C)[C@H](NC(=O)[C@H](CC(C)C)NC(=O)[C@H](CCCCN)NC(=O)[C@H](C)NC(=O)[C@H](C)NC(=O)CNC(=O)[C@H](CCCCN)NC(=O)[C@@H](NC(=O)[C@H](CC(C)C)NC(=O)[C@@H](NC(=O)[C@H](Cc1ccccc1)NC(=O)[C@H](CC(C)C)NC(=O)CN)[C@@H](C)O)[C@@H](C)CC)C(=O)NCC(=O)N[C@@H](CCCCN)C(=O)N[C@H](C(=O)N[C@H](C(=O)N[C@@H](C)C(=O)N[C@@H](CCCCN)C(=O)N[C@@H](CCC(=O)O)C(=O)N[C@@H](C)C(=O)NCC(=O)N[C@@H](CCCCN)C(=O)N[C@H](C(=O)NCC(=O)N[C@@H](CC(C)C)C(=O)N[C@@H](CCC(=O)O)C(=O)N[C@@H](CC(C)C)C(=O)N[C@@H](CCSC)C(=O)N[C@@H](C)C(=O)N[C@H]1CSSC[C@@H](C(=O)O)NC(=O)[C@H](CCC(N)=O)NC(=O)[C@H](CC(N)=O)NC(=O)[C@H]([C@@H](C)O)NC(=O)[C@H]([C@@H](C)CC)NC(=O)[C@H](CCCCN)NC1=O)[C@@H](C)O)C(C)C)[C@@H](C)O` [GLFTLIKGAAKLIGKTVAKEAGKTGLELMACKITNQC] was run?
A: 2.67 µM (≈ 10.2 µg/mL)

Q: What about the MIC [11] of the same compound?
A: ≥ 100 µM

Q: And the MIC [12]?
A: 1.33 µM (≈ 5.1 µg/mL)

Q: And the MIC [13]?
A: 1.33 µM (≈ 5.1 µg/mL)

Q: What about the MIC [14] of the same compound?
A: ≥ 33.5 µM

Q: What about the MIC [15] of the same compound?
A: 2.67 µM (≈ 10.2 µg/mL)

Q: And the MIC [16]?
A: ≥ 50 µM

Q: What about the MIC [17] of the same compound?
A: 8.37 µM (≈ 32 µg/mL)

Q: What does the source list for `CC(C)C[C@H](NC(=O)[C@H](CS)NC(=O)[C@H](Cc1cnc[nH]1)NC(=O)[C@H](C)NC(=O)[C@H](C)NC(=O)[C@H](CS)NC(=O)[C@H](C)NC(=O)[C@H](C)NC(=O)[C@H](CC(=O)O)NC(=O)[C@@H](N)CC(N)=O)C(=O)N[C@@H](Cc1ccccc1)C(=O)N[C@@H](CCCN=C(N)N)C(=O)NCC(=O)N[C@@H](CCCN=C(N)N)C(=O)N[C@@H](CO)C(=O)NCC(=O)NCC(N)=O` [NDAACAAHCLFRGRSGG]?
A: MIC [18]: ≥ 58.6 µM; MIC [19]: ≥ 58.6 µM; MIC [20]: ≥ 58.6 µM; MIC [21]: > 58.6 µM; MIC [22]: ≥ 58.6 µM; MIC [23]: ≥ 58.6 µM; MIC [24]: > 58.6 µM; MIC (Staphylococcus aureus): > 58.6 µM; MIC [25]: ≥ 58.6 µM; MIC [26]: > 58.6 µM

Q: What does the source list for `C[C@@H](O)[C@H](NC(=O)[C@H](CCCCN)NC(=O)[C@@H](NC(=O)[C@@H](NC(=O)[C@@H]1CCCN1)[C@@H](C)O)[C@@H](C)O)C(=O)N[C@@H](Cc1ccc(O)cc1)C(=O)N[C@@H](Cc1ccccc1)C(=O)N1CCC[C@H]1C(=O)N[C@@H](Cc1cnc[nH]1)C(=O)N[C@@H](Cc1ccccc1)C(=O)O` [PTTKTYFPHF]?
A: MIC (Listeria innocua): 1 µM (≈ 1.24 µg/mL); MIC (Micrococcus luteus A270): 1 µM (≈ 1.24 µg/mL); MIC (Escherichia coli): 9 µM (≈ 11.1 µg/mL); MIC [27]: 9 µM (≈ 11.1 µg/mL)

Q: For `NC(=O)[C@H](CCCN=C(N)N)NC(=O)[C@H](CCCN=C(N)N)NC(=O)[C@H](Cc1c[nH]c2ccccc12)NC(=O)[C@@H]1CCCN1C(=O)[C@H](Cc1c[nH]c2ccccc12)NC(=O)[C@H](Cc1c[nH]c2ccccc12)NC(=O)[C@@H]1CCCN1` [PWWPWRR], which MIC [19] is on record?
A: 3.1 µM (≈ 3.36 µg/mL)

Q: And the MIC [28]?
A: ≥ 231 µM

Q: How did the MIC [3] turn out when `CC(C)C[C@H](NC(=O)[C@H](CCCN=C(N)N)NC(=O)[C@@H]1CCCN1C(=O)[C@H](CCCN=C(N)N)NC(=O)[C@H](CCCN=C(N)N)NC(=O)[C@@H]1CCCN1C(=O)[C@@H](N)CCCN=C(N)N)C(=O)N1CCC[C@H]1C(=O)N[C@@H](Cc1c[nH]c2ccccc12)C(N)=O` [RPRRPRLPW] was run?
A: ≥ 104 µM

Q: And the MIC [4]?
A: ≥ 104 µM

Q: How did the MIC [28] turn out when `CC[C@H](C)[C@H](NC(=O)[C@H](CCCN=C(N)N)NC(=O)[C@H](Cc1ccc(O)cc1)NC(=O)[C@H](Cc1c[nH]c2ccccc12)NC(=O)[C@H](CCCN=C(N)N)NC(=O)[C@@H](NC(=O)[C@@H](N)CCCN=C(N)N)C(C)C)C(=O)N[C@@H](Cc1ccccc1)C(=O)N[C@@H](Cc1ccc(O)cc1)C(N)=O` [RVRWYRIFY] was run?
A: 1.47 µM (≈ 2 µg/mL)

Q: With `CC(C)[C@H](NC(=O)[C@H](CS)NC(=O)[C@@H](NC(=O)[C@H](CCCN=C(N)N)NC(=O)[C@H](CCCCN)NC(=O)CNC(=O)[C@H](CC(N)=O)NC(=O)[C@H](CS)NC(=O)[C@@H](N)Cc1ccc(O)cc1)C(C)C)C(=O)N[C@@H](CS)C(N)=O` [YCNGKRVCVC] as the compound, how does the MIC [18] read?
A: ≥ 87.4 µM

Q: What about the MIC [19] of the same compound?
A: ≥ 87.4 µM

Q: And the MIC [20]?
A: ≥ 87.4 µM

Q: And the MIC [21]?
A: > 87.4 µM

Q: What about the MIC [22] of the same compound?
A: ≥ 87.4 µM

Q: What about the MIC [23] of the same compound?
A: ≥ 87.4 µM

Q: And the MIC [24]?
A: > 87.4 µM

Q: And the MIC (Staphylococcus aureus)?
A: > 87.4 µM

Q: What about the MIC [25] of the same compound?
A: ≥ 87.4 µM

Q: What about the MIC [26] of the same compound?
A: > 87.4 µM
